Assay results taken from US11707441B2, “Safinamide for treating myotonia” (Zambon S.P.A., priority 2018, dated 2023).
Read-outs that look alike come from different tables or passages of the source.

Assays:
[1] = tested on: sarcolemma excitability in single myofibers of isolated Extensor Digitorum Longus (EDL) muscles; test: In vitro antimyotonic activity in rat EDL skeletal muscle fibers, 9-AC-induced myotonia-like condition, two-microelectrode current clamp; type: cell-based; settings: for reduction of N spikes (maximum number of spikes): vs 9-AC alone
Method: The antimyotonic activity of safinamide was assessed by recording the sarcolemma excitability in single myofibers of isolated Extensor Digitorum Longus (EDL) muscles using two-microelectrode current-clamp technique. The in-vitro model of myotonia congenita was obtained by incubating rat EDL muscles with 9-anthracene carboxylic acid (9-AC) (Conte Camerino et al., Muscle Nerve. 1989; 12(11):898-904. Altamura et al., Br J Pharmacol. 2018; 175(10):1770-1780). The increase of sarcolemma excitability caused by 9-AC through the blockade of skeletal muscle ClC-1 chloride channels mimicked the abnormal action potential firing observed in patients affected by myotonia congenita.
EDL muscles were dissected out from male Wistar rats under deep anaesthesia (80 mg/kg ip ketamine and 10 mg/kg ip xylazine). Muscles were placed in a 25 ml muscle bath maintained at 30° C. and perfused with saline (gassed with 95% O2 and 5% CO2; pH=7.2-7.3). By means of standard two-intracellular-microelectrode technique, the resting membrane potential and excitability characteristics (number of spikes) of muscle fibres were measured in current clamp mode. The excitability characteristics of the sampled fibres were determined by recording the intracellular membrane potential response to a square-wave constant (100 ms) current pulse. In each fibre, the membrane potential was set by a steady holding current to −80 mV before passing the depolarizing pulses. By increasing the amplitude of the pulse we were able to elicit the first single action potential and by further increasing current intensity in the same fibre, the maximum number of elicitable spikes (N spikes) was measured (Pierno et al., Br J Pharmacol. 2006; 149(7):909-19).
Unwarranted muscle contractions were hampered with dantrolene sodium (2 mg/1). Cell excitability parameters (N spikes) was measured before (control) and after 50 μM 9-AC alone and concomitant application of safinamide at six different concentrations (0.1 to 30 μM). In these experimental conditions, safinamide methanesulfonate was used and dissolved as stock solution (10 mM) in distilled water, then it was diluted to the final concentrations in the muscle bath solution. One animal was used to test two concentrations of safinamide: one concentration in each EDL muscle.

[2] = tested on: rat model of myotonia congenita; test: In vivo antimyotonic activity in 9-AC-induced rat model of myotonia congenita, time of righting reflex (TRR)
Method: Myotonia was induced in rats by intraperitoneal injection of 9-AC, which is a known blocker of skeletal muscle ClC-1 chloride channels (Conte Camerino et al., Muscle Nerve. 1989; 12(11):898-904. Altamura et al., Br J Pharmacol. 2018; 175(10):1770-1780). Male Wistar rats (250-300 g) were used. Experiments were performed in accordance with the Guide for the Care and Use of Laboratory Animals and with Italian Health Department approval n. 194/2018-PR. Experimenters were blinded to the treatments. In this animal model, 9-AC mimics in vivo myotonia congenita, a human disease due to loss-of-function mutations in CLCN1 gene encoding ClC-1 channels. […] Nevertheless, the animals remained fully conscious and alert. Breathing was normal. When hearing an unexpected noise, the animals reacted by a jump on site but had great difficulties to move away due to muscle stiffness. Myotonia was evaluated by measuring the time of righting reflex (TRR, the time needed for the rat placed in supine position to turn back on its four paws). In rats, before 9-AC injections the TRR was less than 0.5 s. […] Then the TRR decreased gradually over time, being close to 1 s, 3 h after 9-AC. An anti-myotonic drug is expected to counteract the 9-AC-induced TRR prolongation. The TRR was evaluated about 10 minutes before 9-AC (Time 0) and 10, 37, 67, 127, and 187 min after 9-AC (30 mg/kg i.p.). The TRR measured at each time point was the mean of 7 measurements spaced by 1 min (to limit warm-up effect). Safinamide methanesulfonate (10 and 30 mg/kg as free base) or vehicle were administrated by oral gavage to the rats 17 min after 9-AC injection. 9-AC and safinamide methanesulfonate were dissolved in bicarbonate and 0.9% NaCl solution, respectively. To allow comparison between rats, the TRR measured at each time point was normalized as a function of TRR measured 10 min after 9AC injection in the same rat. Then average data were calculated for each dosage as the mean±S.E.M. Statistical analysis was performed using one-way analysis of variance (ANOVA) followed by ad-hoc Bonferroni's t test. […] In this in vivo model the dose-response curve of safinamide methanesulfonate at increasing doses (0.3, 1, 3, 10 and 30 mg/kg as free base) was also studied. To allow comparison between rats, the TRR measured at each time point was normalized as a function of TRR measured 10 min after 9AC injection in the same rat. Then average data were calculated for each drug/dosage as the mean±S.E.M. Statistical analysis will be performed using one-way analysis of variance (ANOVA) followed by ad-hoc Bonferroni's t test.

hNav1.4 point mutations = test: Potency in cells transfected with hNav1.4 point mutations compared to wild type; type: cell-based, human
Method: The effect of safinamide was evaluated on some hNav1.4 point mutations located in the inactivation site. Human skeletal muscle subtype of voltage-gated sodium channels (hNav1.4), either wild-type or myotonic mutants, were transiently transfected in HEK293T cells with the calcium-phosphate co-precipitation method. Whole-cell sodium currents (INa) were recorded at room temperature (20-22° C.) using Axon conventional patch-clamp hardware (Molecular Devices, USA). Voltage clamp protocols and data acquisition were performed with pCLAMP software (Axon Instruments). Bath solution contained (mM) 150 NaCl, 4 KCl, 2 CaCl2, 1 MgCl2, 5 Na-HEPES, and 5 glucose (pH 7.4). The pipette solution contained (in mM) 120 CsF, 10 CsCl, 10 NaCl, 5 EGTA, and 5 Cs-HEPES (pH 7.2). Patch pipettes made with Corning 7052 glass (King glass, USA) had resistance ranging from 1 to 3 MΩ. […] The concentration-response curves of safinamide were produced by obtaining the peak current amplitude measured in the presence of drug (IDRUG), normalized to the peak current amplitude measured in the same cell before drug application (ICTRL), as a function of drug concentration [(DRUG)]. […] The IC50 values were determined at resting membrane potential (tonic block: -120 mV at 0.1 Hz) and after repetitive depolarizing pulses to -20 mV at 10 Hz (use and frequency-dependent block). […]

hNav1.4 I1310N = hNav1.4 I1310N (Homo sapiens, UniProt P35499, I1310N); test: Whole-cell patch clamp sodium current inhibition in transfected HEK293T cells, I1310N mutant; type: cell-based
hNav1.4 I1310N, sequence (P35499 whole entry I1310N): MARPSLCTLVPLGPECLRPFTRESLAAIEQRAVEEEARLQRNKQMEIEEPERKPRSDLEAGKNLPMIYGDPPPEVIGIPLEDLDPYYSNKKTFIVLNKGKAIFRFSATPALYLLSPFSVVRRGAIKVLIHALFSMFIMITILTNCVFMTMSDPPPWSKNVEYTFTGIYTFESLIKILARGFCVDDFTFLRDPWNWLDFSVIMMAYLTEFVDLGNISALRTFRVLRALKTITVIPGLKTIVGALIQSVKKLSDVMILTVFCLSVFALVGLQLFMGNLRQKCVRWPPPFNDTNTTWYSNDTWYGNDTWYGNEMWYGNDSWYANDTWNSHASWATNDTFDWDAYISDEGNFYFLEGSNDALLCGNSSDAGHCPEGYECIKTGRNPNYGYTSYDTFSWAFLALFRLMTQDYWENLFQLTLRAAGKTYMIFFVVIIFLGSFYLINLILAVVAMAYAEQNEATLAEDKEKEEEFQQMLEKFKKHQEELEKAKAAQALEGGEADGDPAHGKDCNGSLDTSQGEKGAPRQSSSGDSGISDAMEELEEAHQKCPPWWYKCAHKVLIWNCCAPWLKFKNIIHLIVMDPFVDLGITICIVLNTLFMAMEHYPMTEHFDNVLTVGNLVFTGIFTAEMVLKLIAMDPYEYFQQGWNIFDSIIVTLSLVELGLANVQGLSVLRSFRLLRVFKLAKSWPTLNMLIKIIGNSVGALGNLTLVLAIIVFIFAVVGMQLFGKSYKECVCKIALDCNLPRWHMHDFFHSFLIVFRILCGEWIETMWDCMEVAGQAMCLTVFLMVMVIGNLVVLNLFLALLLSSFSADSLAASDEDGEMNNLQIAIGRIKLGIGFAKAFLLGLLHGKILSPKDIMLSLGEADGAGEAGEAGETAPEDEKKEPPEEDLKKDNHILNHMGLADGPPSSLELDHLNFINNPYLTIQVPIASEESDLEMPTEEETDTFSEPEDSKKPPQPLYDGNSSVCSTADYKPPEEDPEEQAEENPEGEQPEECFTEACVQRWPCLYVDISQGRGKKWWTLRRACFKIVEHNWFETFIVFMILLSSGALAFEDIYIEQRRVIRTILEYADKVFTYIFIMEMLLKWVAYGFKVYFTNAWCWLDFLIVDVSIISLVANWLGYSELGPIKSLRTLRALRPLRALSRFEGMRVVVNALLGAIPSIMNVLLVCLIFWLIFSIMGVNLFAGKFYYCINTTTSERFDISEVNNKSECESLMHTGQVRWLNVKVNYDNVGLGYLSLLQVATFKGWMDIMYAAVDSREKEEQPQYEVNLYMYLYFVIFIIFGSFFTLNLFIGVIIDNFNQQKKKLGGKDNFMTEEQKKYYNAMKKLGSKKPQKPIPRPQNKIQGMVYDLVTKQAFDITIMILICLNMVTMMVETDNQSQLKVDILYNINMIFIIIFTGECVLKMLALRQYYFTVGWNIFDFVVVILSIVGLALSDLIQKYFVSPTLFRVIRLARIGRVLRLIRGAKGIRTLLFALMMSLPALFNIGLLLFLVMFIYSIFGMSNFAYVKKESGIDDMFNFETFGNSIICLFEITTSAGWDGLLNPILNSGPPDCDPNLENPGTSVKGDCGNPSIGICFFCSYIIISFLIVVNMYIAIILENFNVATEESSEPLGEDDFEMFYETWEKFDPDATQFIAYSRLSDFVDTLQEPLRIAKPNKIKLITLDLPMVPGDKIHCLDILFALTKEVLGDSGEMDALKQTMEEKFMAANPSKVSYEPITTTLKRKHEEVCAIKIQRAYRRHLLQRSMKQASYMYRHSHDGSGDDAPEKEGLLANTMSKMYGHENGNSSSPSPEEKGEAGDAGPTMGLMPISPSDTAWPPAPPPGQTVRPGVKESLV
Method: p.I1310N: this mutation has been found in 5 related of a French kindred, and is associated to sodium channel myotonia (Farinato et al., 2019).
(§1) Human skeletal muscle subtype of voltage-gated sodium channels (hNav1.4), either wild-type or myotonic mutants, were transiently transfected in HEK293T cells with the calcium-phosphate co-precipitation method. Whole-cell sodium currents (INa) were recorded at room temperature (20-22° C.) using Axon conventional patch-clamp hardware (Molecular Devices, USA). Voltage clamp protocols and data acquisition were performed with pCLAMP software (Axon Instruments). Bath solution contained (mM) 150 NaCl, 4 KCl, 2 CaCl2, 1 MgCl2, 5 Na-HEPES, and 5 glucose (pH 7.4). […]
(§2) Inhibition of hNav1.4 channels by safinamide was evaluated by measuring the reduction of INa elicited from a holding potential (HP) of −120 to −30 mV at frequency stimulations of 0.1 and 10 Hz. The concentration-response curves of safinamide were produced by obtaining the peak current amplitude measured in the presence of drug (IDRUG), normalized to the peak current amplitude measured in the same cell before drug application (ICTRL), as a function of drug concentration [(DRUG)]. […] The IC50 values were determined at resting membrane potential (tonic block: −120 mV at 0.1 Hz) and after repetitive depolarizing pulses to −20 mV at 10 Hz (use and frequency-dependent block). […]

Wild Type hNav1.4 = target: T1, Wild Type hNav1.4 (Homo sapiens, UniProt P35499); test: Whole-cell patch clamp sodium current inhibition in transfected HEK293T cells, wild type; type: cell-based
T1 construct: expressed in transfected cells; host or cells: HEK293T
T1 sequence (P35499 whole entry): as the sequence (P35499 whole entry I1310N) above, with N1310I counted along it
Method: as §1, with “7.4). The pipette solution contained (in mM) 120 CsF, 10 CsCl, 10 NaCl, 5 EGTA, and 5 Cs-HEPES (pH 7.2).” for “7.4).”
as §2

hNav1.4 V1293I = target: T2, hNav1.4 V1293I (Homo sapiens, UniProt P35499, V1293I); test: Whole-cell patch clamp sodium current inhibition in transfected HEK293T cells, V1293I mutant; type: cell-based
T2 construct: expressed in transfected cells; host or cells: HEK293T
T2 sequence (P35499 whole entry V1293I): as the sequence (P35499 whole entry I1310N) above, with V1293I, N1310I counted along it
Method: p.V1293I: the V1293I mutation is associated to various phenotypes, from sodium channel myotonia to paramyotonia congenita+hyperkalemic periodic paralysis (Koch et al., 1995).
as §1, with “Instruments).” for “Instruments). Bath solution contained (mM) 150 NaCl, 4 KCl, 2 CaCl2, 1 MgCl2, 5 Na-HEPES, and 5 glucose (pH 7.4).”
as §2

hNav1.4 F1298C = target: T3, hNav1.4 F1298C (Homo sapiens, UniProt P35499, F1298C); test: Whole-cell patch clamp sodium current inhibition in transfected HEK293T cells, F1298C mutant; type: cell-based
T3 construct: expressed in transfected cells; host or cells: HEK293T
T3 sequence (P35499 whole entry F1298C): as the sequence (P35499 whole entry I1310N) above, with F1298C, N1310I counted along it
Source text: p.F1298C: this mutation was found in a person, presenting with stiffness in facial, upper and lower limb muscles, mainly after contraction (Farinato et al., 2019). Symptoms worsened with cold and myotonia was reported as painful. The patient noticed a mild improvement of myotonia with exercise.
Human skeletal muscle subtype of voltage-gated sodium channels (hNav1.4), either wild-type or myotonic mutants, were transiently transfected in HEK293T cells with the calcium-phosphate co-precipitation method. Whole-cell sodium currents (INa) were recorded at room temperature (20-22° C.) using Axon conventional patch-clamp hardware (Molecular Devices, USA). […]
as §2

hNav1.4 P1158L = target: T4, hNav1.4 P1158L (Homo sapiens, UniProt P35499, P1158L); test: Whole-cell patch clamp sodium current inhibition in transfected HEK293T cells, P1158L mutant; type: cell-based
T4 construct: expressed in transfected cells; host or cells: HEK293T
T4 sequence (P35499 whole entry P1158L): as the sequence (P35499 whole entry I1310N) above, with P1158L, N1310I counted along it
Method: as §1, with “7.4). The pipette solution contained (in mM) 120 CsF, 10 CsCl, 10 NaCl, 5 EGTA, and 5 Cs-HEPES (pH 7.2).” for “7.4).”
as §2

[3] = HP -120 mV, 0.1 Hz, read-out: IC50 ± SE Tonic block at 0.1 Hz
[4] = repetitive depolarizing pulses, 10 Hz, read-out: IC50 ± SE Use and frequency-dependent block at 10 Hz

Compound: O=C(O)c1c2ccccc2cc2ccccc12 [9-AC, 9-anthracene carboxylic acid]
- increase of N spikes ([1]; 50 μM 9-AC alone vs control): 60%
- time of righting reflex (TRR) ([2]; 10 min after 9-AC injection): about 2 s
- time of righting reflex (TRR) ([2]; 30 min after 9-AC injection): about 4 s
- time of righting reflex (TRR) ([2]; 3 h after 9-AC injection): ~1 s

Compound: Cc1cccc(C)c1OCC(C)N (centres unmarked) [mexiletine]
- potency in hNav1.4 point mutations transfected cells (hNav1.4 point mutations): significantly decreases
- potency relative to safinamide in the same test (fold less potent) ([2]; TRR, 9-AC rat model): about 6 fold

Compound: C[C@H](NCc1ccc(OCc2cccc(F)c2)cc1)C(N)=O [safinamide, (2S)-2-[[4-[(3-fluorophenyl)methoxy]phenyl]methylamino]propanamide]
- IC50 ([1]; Rattus norvegicus, fit of concentration-response curve, ±SE of the fit, 50 μM 9-AC, read-out: IC50 (concentration able to reduce by 50% the 9-AC effect)): 13.4 ± 2.4 µM
- reduction of N spikes (maximum number of spikes) ([1]; safinamide 1 μM with 50 μM 9-AC): 22±6%
- reduction of N spikes (maximum number of spikes) ([1]; safinamide 5 μM with 50 μM 9-AC): 35±5%
- reduction of N spikes (maximum number of spikes) ([1]; safinamide 10 μM with 50 μM 9-AC): 42±5%
- reduction of N spikes (maximum number of spikes) ([1]; safinamide 30 μM with 50 μM 9-AC): 60±6%
- reversibility of antimyotonic effect upon wash-out ([1]; wash-out, 9-AC 50 μM): reversible
- IC50 (hNav1.4 I1310N; [3]): 170 ± 26 µM
- IC50 (hNav1.4 I1310N; [4]): 46 ± 7 µM
- IC50 (Wild Type hNav1.4; [3]): 160 ± 18 µM
- IC50 (Wild Type hNav1.4; [4]): 33 ± 4 µM
- IC50 (hNav1.4 V1293I; [3]): 171 ± 19 µM
- IC50 (hNav1.4 V1293I; [4]): 47 ± 5 µM
- reduction of TRR ([2]; 37 min after 9-AC, 3, 10 and 30 mg/kg oral): significant
- maximal effect on TRR prolongation ([2]; 67 min, dose of 10-30 mg/kg oral): 66%
- TRR inhibition ([2]; 67 min after 9-AC (peak effect), also with 1 mg/kg oral): significant
- TRR inhibition ([2]; 127 min after 9-AC, only 10 and 30 mg/kg oral): significant inhibition
- ED50 ([2]; Rattus norvegicus, 67 min, dose-response curve at 67 min, oral, read-out: ED50 (effective dose in inhibiting by 50% TRR prolongation)): 1.2 mg/kg
- effect on 9-AC-induced TRR prolongation ([2]; at peak effect (37 and 67 min after 9-AC), oral gavage): dose-dependently and significantly counteracted
- duration of effect on TRR prolongation ([2]; oral gavage, 17 min after 9-AC): ≤ 120 min
- IC50 (hNav1.4 F1298C; [3]): 173 ± 12 µM
- IC50 (hNav1.4 F1298C; [4]): 83 ± 2 µM
- IC50 (hNav1.4 P1158L; [3]): 148 ± 13 µM
- IC50 (hNav1.4 P1158L; [4]): 34 ± 3 µM
